Laboratory results from patent publication US20150344466A1 (SUMITOMO CHEMICAL COMPANY, LIMITED, priority 2013, published 2015).

Columns and labels:
Blattella germanica = assay: Knockdown spray test on Blattella germanica, 0.1% w/v oil formulation (Test Example 2); assay type: in vivo; conditions: topical, 0.25 h, active ingredient 0.1% w/v, 1.5 ml sprayed, within 15 minutes, read-out: knockdown rate of the test insects within 15 minutes
Protocol: Ten Blattella germanica (5 males and 5 females) were released in a test container (8.75 cm in diameter, 7.5 cm in height, and the bottom made of 16 mesh metallic wire) with the inner wall on which butter was applied, and the container was placed on the bottom of a test chamber (bottom: 46 cm×46 cm, height: 70 cm). From a height of 60 cm above the upper surface of the container, 1.5 ml of the test drug solution was sprayed using a spray gun (a spraying pressure of 0.42 kg/cm^2). Thirty seconds after spraying, the container was taken out from the test chamber, and after 2 minutes, 5 minutes and 15 minutes, the number of knocked-down insects was counted to obtain a knockdown rate. The knockdown rate was calculated by the following equation.
(§1) Knockdown Rate (%)=(Number of Knocked-down Insects/Number of Tested Insects)×100

Culex pipiens pallens = assay: Knockdown spray test on adult Culex pipiens pallens (Test Example 4); assay type: in vivo; conditions: topical, 0.25 h, active ingredient 0.1% w/v, 0.5 ml sprayed, within 15 minutes, read-out: knockdown rate of the test insects within 15 minutes
Protocol: Ten adult Culex pipiens pallens were released in a polyethylene cup (bottom diameter: 10.6 cm), and the cup was covered with a 16-mesh nylon gauze. The polyethylene cup was placed on the bottom of a test chamber (bottom: 46 cm×46 cm, height: 70 cm). From a height of 30 cm above the upper surface of the polyethylene cup, 0.5 ml of the test drug solution was sprayed using a spray gun (a spraying pressure of 0.4 kg/cm^2). Immediately after spraying, the cup was taken out from the test chamber, and after 2 minutes, 5 minutes and 15 minutes, the number of knocked-down insects was counted to obtain a knockdown rate. The knockdown rate was calculated by the following equation.
as §1

Compound	pest or weed control at 0.1 % strength (Blattella germanica)	pest or weed control at 0.1 % strength (Culex pipiens pallens)
O=C(NCC1CCOC1)c1cc(Cc2cccc(-c3ccccc3)c2)on1 (stereo not shown) [(327)]	≥ 80%	≥ 80%
O=C(NCC1CCOCC1)c1cc(COCc2cccc(F)c2)on1 [(75), N-(tetrahydropyran-4-ylmethyl)-5-(3-fluorobenzyloxymethyl)isoxazole-3-carboxamide]	≥ 80%	≥ 80%
O=C(NCC1CCOC1)c1cc(COCc2ccc3sccc3c2)on1 (stereo not shown) [(336), N-(tetrahydrofuran-3-ylmethyl)-5-[(5-benzothiophenyl)methoxymethyl]isoxazole-3-carboxamide]	≥ 80%	≥ 80%
COc1cccc(Cc2cc(C(=O)NCC3CCOC3)no2)c1 (stereo not shown) [(312), N-(tetrahydrofuran-3-ylmethyl)-5-(3-methoxybenzyl)isoxazole-3-carboxamide]	≥ 80%	≥ 80%
O=C(NCC1CCOC1)c1noc(COCc2ccccc2)c1CO (stereo not shown) [(174), N-(tetrahydrofuran-3-ylmethyl)-(5-benzyloxymethyl-4-hydroxymethyl)isoxazole-3-carboxamide]	≥ 80%	≥ 80%
COc1ccc(COCc2cc(C(=O)NCC3CCOC3)no2)cc1 (stereo not shown) [(99), N-(tetrahydrofuran-3-ylmethyl)-5-(4-methoxybenzyloxymethyl) isoxazole-3-carboxamide]	≥ 80%	≥ 80%
O=C(NCC1CCOC1)c1cc(COc2ccc(F)cc2)on1 (stereo not shown) [(184)]	≥ 80%	≥ 80%
O=C(NCC1CCOC1)c1cc(COCCCc2ccccc2)on1 (stereo not shown) [(133), N-(tetrahydrofuran-3-ylmethyl)-5-(3-phenylpropoxymethyl)isoxazole-3-carboxamide]	≥ 80%	≥ 80%
O=C(NCC1CCOC1)c1noc(COCc2ccc3ccccc3c2)c1F (stereo not shown) [(255), N-(tetrahydrofuran-3-ylmethyl)-5-(2-naphthylmethoxymethyl)-4-fluoroisoxazole-3-carboxamide]	≥ 80%	≥ 80%
O=C(NCC1COCCO1)c1cc(CCCc2ccc3ccccc3c2)on1 (stereo not shown) [(230), N-(1,4-dioxan-2-ylmethyl)-5-[3-(2-naphthyl)propyl]isoxazole-3-carboxamide]	≥ 80%	≥ 80%
COc1ccccc1Cc1cc(C(=O)NCC2CCOC2)no1 (stereo not shown) [(317), N-(tetrahydrofuran-3-ylmethyl)-5-(2-methoxybenzyl)isoxazole-3-carboxamide]	≥ 80%	≥ 80%
O=C(NCC1CCOC1)c1cc(COCc2ccccc2Br)on1 (stereo not shown) [(265), N-(tetrahydrofuran-3-ylmethyl)-5-(2-bromobenzyloxymethyl)isoxazole-3-carboxamide]	≥ 80%	≥ 80%
O=C(NCC1CCOC1)c1cc(COCc2ccc(Cl)s2)on1 (stereo not shown) [(109), N-(tetrahydrofuran-3-ylmethyl)-5-(2-chlorothiophen-5-ylmethoxymethyl)isoxazole-3-carboxamide]	≥ 80%	≥ 80%
COc1ccc(COCc2cc(C(=O)NCC3CCOC3)no2)cc1F (stereo not shown) [(277), N-(tetrahydrofuran-3-ylmethyl)-5-(3-fluoro-4-methoxybenzyloxymethyl)isoxazole-3-carboxamide]	≥ 80%	≥ 80%
O=C(NCC1CCOC1)c1cc(COc2ccc(Cl)cc2)on1 (stereo not shown) [(180)]	≥ 80%	≥ 80%
O=C(NCC1CCOC1)c1cc(COCc2cc3ccccc3o2)on1 (stereo not shown) [(111)]	≥ 80%	≥ 80%
CC(O)c1c(C(=O)NCC2CCOC2)noc1COCc1ccc2ccccc2c1 (stereo not shown) [(210), N-(tetrahydrofuran-3-ylmethyl)-1-hydroxyethyl-5-(2-naphthylmethoxymethyl)isoxazole-3-carboxamide]	≥ 80%	≥ 80%
O=C(NCC1CCOC1)c1noc(COCc2ccccc2F)c1F (stereo not shown) [(298), N-(tetrahydrofuran-3-ylmethyl)-5-(2-fluorobenzyloxymethyl)-4-fluoroisoxazole-3-carboxamide]	≥ 80%	≥ 80%
O=C(NCC1CCOC1)c1noc(COCc2ccc3ccccc3c2)c1CF (stereo not shown) [(211), N-(tetrahydrofuran-3-ylmethyl)-4-fluoromethyl-5-(2-naphthylmethoxymethyl)isoxazole-3-carboxamide]	≥ 80%	≥ 80%
Cc1c(C(=O)NCC2CCOC2)noc1COCc1cccc(F)c1 (stereo not shown) [(217), N-(tetrahydrofuran-3-ylmethyl)-5-(3-fluorobenzyloxymethyl)-4-methylisoxazole-3-carboxamide]	≥ 80%	≥ 80%
CSc1cccc(COCc2cc(C(=O)NCC3CCOC3)no2)c1 (stereo not shown) [(88), N-(tetrahydrofuran-3-ylmethyl)-5-(3-methylthiobenzyloxymethyl)isoxazole-3-carboxamide]	≥ 80%	≥ 80%
O=C(NCC1CCOC1)c1cc(CSCc2ccc3ccccc3c2)on1 (stereo not shown) [(253)]	≥ 80%	≥ 80%
CC(F)c1c(C(=O)NCC2CCOC2)noc1COCc1ccccc1 (stereo not shown) [(172), N-(tetrahydrofuran-3-ylmethyl)-[5-benzyloxymethyl-4-(1-fluoroethyl)]isoxazole-3-carboxamide]	≥ 80%	≥ 80%
O=C(NCC1CCOC1)c1cc(COCc2cc3ccccc3cc2F)on1 (stereo not shown) [(257), N-(tetrahydrofuran-3-ylmethyl)-5-(3-fluoro-2-naphthylmethoxymethyl)isoxazole-3-carboxamide]	≥ 80%	≥ 80%
CCc1c(C(=O)NCC2CCOC2)noc1COCc1ccc2ccccc2c1 (stereo not shown) [(338), N-(tetrahydrofuran-3-ylmethyl)-5-(2-naphthylmethoxymethyl)-4-ethylisoxazole-3-carboxamide]	≥ 80%	≥ 80%
O=C(NCC1CCOC1)c1cc(COCc2ccc(F)cc2)on1 (stereo not shown) [(89), N-(tetrahydrofuran-3-ylmethyl)-5-(4-fluorobenzyloxymethyl)isoxazole-3-carboxamide]	≥ 80%	≥ 80%
O=C(NCC1CCOC1)c1cc(COc2ccc(Br)cc2)on1 (stereo not shown) [(186), N-(tetrahydrofuran-3-ylmethyl)-5-(4-bromophenoxymethyl)isoxazole-3-carboxamide]	≥ 80%	≥ 80%
Cc1cccc(Cc2cc(C(=O)NCC3CCOC3)no2)c1 (stereo not shown) [(328), N-(tetrahydrofuran-3-ylmethyl)-5-(3-methylbenzyl)isoxazole-3-carboxamide]	≥ 80%	≥ 80%
Cc1ccc(Cc2cc(C(=O)NCC3CCOC3)no2)cc1 (stereo not shown) [(329), N-(tetrahydrofuran-3-ylmethyl)-5-(4-methylbenzyl)isoxazole-3-carboxamide]	≥ 80%	≥ 80%
